According to patent US10736974B2, “Scaffolds and multifunctional intermediates for imaging PSMA and cancer therapy” (THE JOHNS HOPKINS UNIVERSITY, priority 2014, dated 2020):
“Also recorded” adds a separate entry of the source.

Legend:
PC-3 PIP (PSMA+) cells = experiment: In vitro stability studies (TLC of radiometabolites) in PC-3 PIP and PC-3 flu cells; details: 30 minutes incubation, PC-3 PIP vs PC-3 flu cells
[1] = test system: PSMA+ PC-3 PIP and PSMA- PC-3 flu tumors; experiment: Ex vivo biodistribution in mice bearing PSMA+ PC-3 PIP and PSMA- PC-3 flu xenografts; details: for Biodistribution, PC-3 Pip tumor: PSMA+ PC-3 PIP tumor; for Biodistribution, PC-3 flu tumor: PSMA- PC-3 flu tumor; for Biodistribution, Lrg int.: large intestine; for Biodistribution, Sm. int.: small intestine
[2] = test system: PSMA+ PC-3 PIP and PSMA- PC-3 flu tumors; experiment: PET-CT imaging of NOD/SCID mice bearing PSMA+ PC-3 PIP and PSMA- PC-3 flu tumors; format: in vivo
Description: FIG. 8A, FIG. 8B, FIG. 8C, and FIG. 8D show positron emission tomography-computed tomography (PET-CT) images in male NOD-SCID mice injected with the radiolabeled [^18F]XY-20 compound at (FIG. 8A) 5-15 minutes, (FIG. 8B) 15-25 minutes, (FIG. 8C) 25-35 minutes and (FIG. 8D) 50-60 minutes after injection; the mice on the right in each panel were pretreated with ZJ43 and the mice on the left in each panel were not pretreated with ZJ43. The green arrows point to the PSMA-negative PC3-flu tumor and the red arrows point to the PSMA-expressing (PC3-PIP) tumor (target); 200 microCi of radiotracer was injected;
Dynamic and whole-body PET and CT images were acquired on an eXplore VISTA small-animal PET (GE Healthcare) and an X-SPECT small SPECT/CT system (Gamma Medica Ideas), respectively. For imaging studies, anesthesia was induced with 3% and maintained under 1.5% isoflurane (v/v) in oxygen. PET or PET-CT imaging studies were performed on NOD/SCID mice bearing PSMA+PC-3 PIP and PSMA-PC-3 flu tumors. Following intravenous injection of [^18F]12 ([^18F]XY-20) PET images were acquired at 10 min, 30 min, 1 h, 2 h and 4 h p.i. as a pseudodynamic scan, i.e., a sequence of successive whole-body images were acquired in two bed positions. The dwell time at each bed position was 10 min for a total scan time of 20 minutes. An energy window of 250-700 keV was used. […]

## O=C(O)CC[C@H](NC(=O)O[C@@H](CCCCNC(=O)c1ccc([125I])cc1)C(=O)O)C(=O)O [[^125I]31, (S)-2-(((((S)-1-carboxy-5-(4-[^125I]iodobenzamido)pentyl)oxy)carbonyl)amino) pentanedioic acid]
PC-3 PIP (PSMA+) cells
  radiometabolites / metabolism in cells: Polar radiometabolite(s) in extracellular and intracellular fluid were only seen; also recorded: observed only in PSMA+PC-3 PIP cells

## O=C(O)CC[C@H](NC(=O)O[C@@H](CCCCNC(=O)c1ccc([18F])cc1)C(=O)O)C(=O)O [[^18F]12]
[1]; PC-3 PIP tumor mice
  tumor and kidney uptake and clearance (pharmacokinetics in words): modest PSMA+PC-3 PIP tumor uptake but rapidly cleared from both PC-3 PIP tumor and normal tissues including kidneys
[1]; 30 min, N = 7
  Biodistribution, PC-3 Pip tumor: 6.33±1.55 percent injected dose/gram
  Biodistribution, PC-3 flu tumor: 1.89 ± 0.78 percent injected dose/gram
  Biodistribution, bladder: 22.4 ± 22.5 percent injected dose/gram
  Biodistribution, blood: 2.51 ± 1.75 percent injected dose/gram
  Biodistribution, bone: 2.05 ± 2.39 percent injected dose/gram
  Biodistribution, fat: 1.23 ± 1.88 percent injected dose/gram
  Biodistribution, heart: 1.12 ± 0.74 percent injected dose/gram
  Biodistribution, kidney: 14.2 ± 8.47 percent injected dose/gram
  Biodistribution, Lrg int.: 3.82 ± 5.87 percent injected dose/gram
  Biodistribution, liver: 11.0 ± 1.77 percent injected dose/gram
  Biodistribution, lung: 2.07 ± 1.51 percent injected dose/gram
  Biodistribution, muscle: 0.86 ± 0.81 percent injected dose/gram
  Biodistribution, Sm. int.: 1.89 ± 1.58 percent injected dose/gram
  Biodistribution, spleen: 3.76 ± 6.48 percent injected dose/gram
[1]; 60 min, N = 4
  Biodistribution, PC-3 Pip tumor: 3.52 ± 1.48 percent injected dose/gram
  Biodistribution, PC-3 flu tumor: 0.72 ± 0.12 percent injected dose/gram
  Biodistribution, bladder: 5.50 ± 3.45 percent injected dose/gram
  Biodistribution, blood: 1.07 ± 0.26 percent injected dose/gram
  Biodistribution, bone: 0.72 ± 0.31 percent injected dose/gram
  Biodistribution, fat: 0.15 ± 0.05 percent injected dose/gram
  Biodistribution, heart: 0.25 ± 0.08 percent injected dose/gram
  Biodistribution, kidney: 6.97 ± 7.02 percent injected dose/gram
  Biodistribution, Lrg int.: 0.62 ± 0.27 percent injected dose/gram
  Biodistribution, liver: 12.5 ± 3.01 percent injected dose/gram
  Biodistribution, lung: 0.85 ± 0.55 percent injected dose/gram
  Biodistribution, muscle: 0.27 ± 0.12 percent injected dose/gram
  Biodistribution, Sm. int.: 0.54 ± 0.19 percent injected dose/gram
  Biodistribution, spleen: 0.45 ± 0.31 percent injected dose/gram
[1]; 90 min, N = 4
  Biodistribution, PC-3 Pip tumor: 0.94 ± 0.24 percent injected dose/gram
  Biodistribution, PC-3 flu tumor: 0.37 ± 0.08 percent injected dose/gram
  Biodistribution, bladder: 2.11 ± 1.21 percent injected dose/gram
  Biodistribution, blood: 0.20 ± 0.14 percent injected dose/gram
  Biodistribution, bone: 0.79 ± 0.16 percent injected dose/gram
  Biodistribution, fat: 0.11 ± 0.06 percent injected dose/gram
  Biodistribution, heart: 0.11 ± 0.02 percent injected dose/gram
  Biodistribution, kidney: 1.51 ± 0.22 percent injected dose/gram
  Biodistribution, Lrg int.: 0.18 ± 0.03 percent injected dose/gram
  Biodistribution, liver: 11.0 ± 0.87 percent injected dose/gram
  Biodistribution, lung: 0.33 ± 0.05 percent injected dose/gram
  Biodistribution, muscle: 0.06 ± 0.01 percent injected dose/gram
  Biodistribution, Sm. int.: 0.27 ± 0.11 percent injected dose/gram
  Biodistribution, spleen: 0.27 ± 0.04 percent injected dose/gram
[1]; 180 min, N = 4
  Biodistribution, PC-3 Pip tumor: 0.22 ± 0.07 percent injected dose/gram
  Biodistribution, PC-3 flu tumor: 0.12 0.03 percent injected dose/gram
  Biodistribution, bladder: 2.74 ± 0.48 percent injected dose/gram
  Biodistribution, blood: 0.08 ± 0.06 percent injected dose/gram
  Biodistribution, bone: 0.63 ± 0.14 percent injected dose/gram
  Biodistribution, fat: 0.04 ± 0.02 percent injected dose/gram
  Biodistribution, heart: 0.07 ± 0.04 percent injected dose/gram
  Biodistribution, kidney: 0.50 ± 0.18 percent injected dose/gram
  Biodistribution, Lrg int.: 0.16 ± 0.05 percent injected dose/gram
  Biodistribution, liver: 4.62 ± 3.80 percent injected dose/gram
  Biodistribution, lung: 0.14 ± 0.04 percent injected dose/gram
  Biodistribution, muscle: 0.03 ± 0.01 percent injected dose/gram
  Biodistribution, Sm. int.: 0.08 ± 0.04 percent injected dose/gram
  Biodistribution, spleen: 0.13 ± 0.08 percent injected dose/gram
[1]; after 30 min
  clearance of radioactivity from organs: radioactivity rapidly cleared from all organs including PC-3 PIP tumor
[2]
  tumor uptake on co-injection with an excess of competing inhibitor ZJ-43: complete blockade of tumor uptake
